# pEC50, pIC50: −log10 of the molar value.
# Experiments:
# [1] = biological target: T1, CX3CR1 (Homo sapiens (Human), UniProt P49238); test: hCX3CR1 [3H]-AZD8797 competitive binding assay (filter); conditions: CHO-hCX3CR1 membranes, 2 nM [3H]-AZD8797
# Method in brief: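 CHO-hCX3CR1 membranes (9 μg/well) were incubated 2 h at room temperature with 2 nM [3H]-AZD8797 and varying competitor concentrations. Buffer: 25 mM HEPES pH 7.4, 10 mM MgCl2, 1 mM CaCl2, 0.5% BSA, 1% DMSO. Bound ligand was collected by vacuum filtration, washed in ice-cold buffer with 500 mM NaCl, and counted by scintillation.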
# [2] = biological target: T1, CX3CR1; test: hCX3CR1 [125I]-CX3CL1 displacement binding (SPA); conditions: CHO-hCX3CR1 membranes, [125I]-CX3CL1, SPA beads
# Protocol: hCX3CR1 [^125I]-CX3CL1 Displacement Binding (SPA)
# CHO-hCX3CR1 membranes (3 μg per well) together with […] [^125I]-CX3CL1 (Perkin Elmer) and different concentrations of competitor compound were incubated together with 400 μg/well WGA coated PVT SPA beads (Perkin Elmer) in 50 mM HEPES (pH 7.4), 10 mM MgCl2, 1 mM EDTA and 0.1% Gelatin in a Greiner polystyrene flat-bottom 384-well plate. The plate was incubated for 20 h at room temperature before the radioactivity was measured using a MicroBeta Trilux reader (PerkinElmer). The DMSO concentration was held constant at 1%.
# [3] = biological target: T1, CX3CR1; test: PathHunter β-arrestin recruitment assay; format: cell-based; conditions: CHO-K1 CX3CR1 β-Arrestin cells, with CX3CL1
# Protocol: PathHunter β-Arrestin Recruitment Assay
# β-Arrestin recruitment was measured using the PathHunter® eXpress enzyme fragment complementation assay (DiscoverX #93-0956E2). 3500 CHO-K1 CX3CR1 β-Arrestin cells/well in Opti-MEM were incubated together with different concentrations of CX3CL1 and antagonistic compound in a Greiner tissue culture treated flat-bottom 384-well plate. After 90 min of incubation at 37° C., the detection reagent supplied in the kit was added and incubation continued for 1 h at room temperature, before reading the luminescence with a Victor2 luminescence plate reader (PerkinElmer). The final DMSO concentration was held constant at 1%.
# [4] = biological target: T1, CX3CR1; test: CX3CR1-dependent cell adhesion to recombinant CX3CL1 in human whole blood under flow; format: cell-based; conditions: recombinant full-length CX3CL1
# Protocol: (§1) Adhesion of cells to recombinant full-length human CX3CL1 was monitored under physiological flow using a Cellix VenaFlux microfluidics platform with connected fluorescent microscope and camera, and using Vena8 Fluoro+ Biochips (Cellix) pre-coated with anti-His monoclonal antibody (25 μg/mL; R&D Systems) and His-tagged full-length CX3CL1 (15 μg/mL; R&D Systems).
# CX3CR1-Dependent Cell Adhesion to Recombinant CX3CL1 in Human Whole Blood Under Flow
# Human whole blood from healthy volunteers was collected using heparin as anti-coagulant. […] Compound stocks or DMSO vehicle were added to 0.5 or 1.0 ml aliquots of blood such that the final concentration of DMSO was 0.1%, corresponding to a 1000-fold dilution of compound stock. Blood was pre-incubated with compound at room temperature for 60 minutes with gentle shaking. DiOC6 (Invitrogen, 5 μM) or Hoechst 33342 (Invitrogen, 300 μM) dye was subsequently added to fluorescently label cells and enable their detection during the flow adhesion assay. To monitor adhesion, blood was allowed to flow through the channels of a Vena8 Fluoro+ biochip at 2.25 dynes per cm^2 for 3-6 minutes prior to capturing images for quantification. Fluorescent cells adhering to the channels were counted and the mean and/or total count across five to six images in each channel were used for calculating concentration-response curves.
# [5] = biological target: T1, CX3CR1; test: Flow adhesion for human B-lymphocyte cell line RPMI-8226; format: cell-based; conditions: RPMI-8226 cells under flow, recombinant full-length CX3CL1
# Protocol: as §1
# Flow Adhesion for Human B-Lymphocyte Cell Line RPMI-8226
# Cells were cultured in RPMI 1640 medium with GlutaMAX and 20% FBS (HyClone, Perbio). Before each experiment, cells were centrifuged at 320 g and resuspended to 5×10^6 cells per ml in RPMI 1640 with 1% FBS. Cells were pre-incubated for 15 minutes at room temperature with CX3CR1 antagonist in an 8-step 3-fold dilution series starting at 3.3 μM. DMSO concentration was kept constant for all antagonist concentrations at 0.1%. Cells were pumped through the channels of the Vena8 Fluoro+ biochip at 0.5 dynes per cm2 for 3 m prior to capturing microscope images for quantification. Cells adhering to channels were counted and the mean values across five images in each channel were used for calculating the concentration-response curves.
# T1 sequence (P49238 whole entry): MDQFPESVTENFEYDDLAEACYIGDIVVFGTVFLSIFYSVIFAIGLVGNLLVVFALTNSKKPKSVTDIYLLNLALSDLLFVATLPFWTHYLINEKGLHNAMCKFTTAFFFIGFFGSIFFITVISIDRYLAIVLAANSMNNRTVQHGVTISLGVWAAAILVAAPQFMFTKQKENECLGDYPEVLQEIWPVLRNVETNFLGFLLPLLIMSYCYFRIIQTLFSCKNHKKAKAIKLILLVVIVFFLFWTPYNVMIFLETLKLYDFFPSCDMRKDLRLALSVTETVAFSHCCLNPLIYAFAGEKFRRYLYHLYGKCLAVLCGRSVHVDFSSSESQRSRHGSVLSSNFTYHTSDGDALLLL
pIC50 [1],pIC50 [2],pEC50 [3],pIC50 [4],pIC50 [5],SMILES
7.26,< 5.00,6.40,5.61,6.89,"COc1ncc([C@H](C)Cc2nc(N[C@@H](CO)CC(C)C)nc(NS(C)(=O)=O)n2)cc1F (single isomer, unassigned) [Example 7, N-(4-((R*)-2-(5-Fluoro-6-methoxypyridin-3-yl)propyl)-6-(((R)-1-hydroxy-4-methylpentan-2-yl)amino)-1,3,5-triazin-2-yl)methanesulfonamide]"
7.28,,7.00,5.85,,"COc1cc(F)c([C@H](C)Cc2nc(N[C@@H](CO)CC(C)C)nc(NS(C)(=O)=O)n2)cn1 (single isomer, unassigned) [Example 46, N-(4-((R*)-2-(4-Fluoro-6-methoxypyridin-3-yl)propyl)-6-(((R)-1-hydroxy-4-methylpentan-2-yl)amino)-1,3,5-triazin-2-yl)methanesulfonamide]"
7.31,6.33,,5.51,7.85,"COc1ccc([C@H](C)Cc2nc(N[C@@H](CO)CC(C)C)nc(NS(C)(=O)=O)n2)c(F)c1 (single isomer, unassigned) [Example 81, N-(4-((R*)-2-(2-Fluoro-4-methoxyphenyl)propyl)-6-(((R)-1-hydroxy-4-methylpentan-2-yl)amino)-1,3,5-triazin-2-yl)methanesulfonamide]"
6.89,6.25,,,7.96,"COc1ccc([C@@H](C)Cc2nc(N[C@@H](CO)CC(C)C)nc(NS(C)(=O)=O)n2)c(F)c1 (single isomer, unassigned) [Example 82, N-(4-((S*)-2-(2-Fluoro-4-methoxyphenyl)propyl)-6-(((R)-1-hydroxy-4-methylpentan-2-yl)amino)-1,3,5-triazin-2-yl)methanesulfonamide]"
7.74,,7.30,6.16,,"COc1ccc([C@H](C)Cc2nc(N[C@@H](CO)CC(C)C)nc(NS(C)(=O)=O)n2)c(F)n1 (single isomer, unassigned) [Example 85, N-(4-((R*)-2-(2-Fluoro-6-methoxypyridin-3-yl)propyl)-6-(((R)-1-hydroxy-4-methylpentan-2-yl)amino)-1,3,5-triazin-2-yl)methanesulfonamide]"
6.81,6.37,,,6.28,"CC(C)C[C@H](CO)Nc1nc(C[C@H](C)c2cccc(F)c2F)nc(NS(C)(=O)=O)n1 (single isomer, unassigned) [Example 143, N-(4-((S*)-2-(2,3-Difluorophenyl)propyl)-6-(((R)-1-hydroxy-4-methylpentan-2-yl)amino)-1,3,5-triazin-2-yl)methanesulfonamide]"
7.89,6.98,7.37,6.82,8.22,"CC(C)C[C@H](CO)Nc1nc(C[C@@H](C)c2cccc(F)c2F)nc(NS(C)(=O)=O)n1 (single isomer, unassigned) [Example 144, N-(4-((R*)-2-(2,3-Difluorophenyl)propyl)-6-(((R)-1-hydroxy-4-methylpentan-2-yl)amino)-1,3,5-triazin-2-yl)methanesulfonamide]"
6.89,6.20,,6.27,7.55,"CC(C)C[C@H](CO)Nc1nc(C[C@H](C)c2ccccc2F)nc(NS(C)(=O)=O)n1 (single isomer, unassigned) [Example 145, N-(4-((S*)-2-(2-Fluorophenyl)propyl)-6-(((R)-1-hydroxy-4-methylpentan-2-yl)amino)-1,3,5-triazin-2-yl)methanesulfonamide]"
7.64,6.74,,6.63,7.96,"CC(C)C[C@H](CO)Nc1nc(C[C@@H](C)c2ccccc2F)nc(NS(C)(=O)=O)n1 (single isomer, unassigned) [Example 146, N-(4-((R*)-2-(2-Fluorophenyl)propyl)-6-(((R)-1-hydroxy-4-methylpentan-2-yl)amino)-1,3,5-triazin-2-yl)methanesulfonamide]"
7.43,6.32,,6.49,7.43,"CC(C)C[C@H](CO)Nc1nc(C[C@@H](C)c2ccccc2)nc(NS(C)(=O)=O)n1 (single isomer, unassigned) [Example 148, N-(4-(((R)-1-Hydroxy-4-methylpentan-2-yl)amino)-6-((R*)-2-phenylpropyl)-1,3,5-triazin-2-yl)methanesulfonamide]"

# From patent US20240199558A1, “2,4,6-TRISUBSTITUTED 1,3,5-TRIAZINES AS MODULATORS OF CX3CR1” (ASTRAZENECA AB, priority 2022, published 2024)
